{"source": "ChEMBL document CHEMBL1128042", "about": "“The effect of fluorine substitution on the haemotoxicity of Primaquine” (1995)", "species": "Mus musculus", "experiment": "Antimalarial activity was evaluated against Plasmodium berghei in female CD1 mice (Mus musculus) (20-25g)", "assay_type": "functional", "data": [{"smiles": "COc1cc(NC(C)CCCN)c2ncccc2c1F", "note": "(configuration not stated)", "values": [{"measurement": "ED50", "value": 7.78, "unit": "µmol/kg"}]}, {"smiles": "COc1cc(NC(C)CCCN)c2ncccc2c1", "note": "(configuration not stated) [PRIMAQUINE]", "values": [{"measurement": "ED50", "value": 2.2, "unit": "µmol/kg"}]}]}
